One experiment deals with T1, LATS1 (Homo sapiens, UniProt O95835).
T1 construct: purchased Carna Biosciences
T1 sequence (O95835 589-1130 limits assumed): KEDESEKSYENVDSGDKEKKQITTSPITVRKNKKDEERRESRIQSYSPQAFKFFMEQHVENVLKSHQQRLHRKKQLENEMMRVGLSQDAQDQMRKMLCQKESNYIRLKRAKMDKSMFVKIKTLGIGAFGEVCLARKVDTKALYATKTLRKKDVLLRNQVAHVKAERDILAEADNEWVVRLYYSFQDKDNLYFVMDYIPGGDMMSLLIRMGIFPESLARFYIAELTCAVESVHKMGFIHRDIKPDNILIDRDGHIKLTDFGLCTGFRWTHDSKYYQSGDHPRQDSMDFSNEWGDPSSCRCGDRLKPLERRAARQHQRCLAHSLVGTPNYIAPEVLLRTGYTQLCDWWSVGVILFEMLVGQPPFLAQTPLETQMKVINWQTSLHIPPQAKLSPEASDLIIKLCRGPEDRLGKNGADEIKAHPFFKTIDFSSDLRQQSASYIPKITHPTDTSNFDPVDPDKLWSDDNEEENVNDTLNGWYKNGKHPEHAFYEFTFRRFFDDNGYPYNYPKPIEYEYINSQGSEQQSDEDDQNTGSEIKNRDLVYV
In words: Kinase Assay method (Fluorospark Kinase/ADP Multi-Assay Kit). It is filed as biochemical. As for the experimental part: (§1) For compound k-1:B-1 (racemate), GA-002A, GA-002B, GA-005A and GA-005B, inhibitory activity evaluation (calculation of IC50) was performed on LATS1 and LATS2 (manufactured by Carna Biosciences). The activity was measured using the Kinase Assay method described below. The compounds were added such that the test concentration of k-1:B-1 (racemate), GA-002A, GA-002B, GA-005A and GA-005B was in 8 steps (10 μM, 1 μM, 100 nM, […], 10 nM, 3 nM, 1 nM, 0.3 nM) from the final concentration of 10 μM to 0.3 nM.
(§2) As the analysis method of the data, the mean signal of the control well containing reaction components other than the evaluation compound was set to 0% inhibition, the mean signal without enzyme addition was set to 100% inhibition, and the inhibition rate was calculated from the mean signal of 2 wells of each test substance test. IC50 value was calculated using EXSUS (version 7.1.6, manufactured by CAC EXICARE Corporation).
(§3) 2 μL of a compound of the present invention solution at 2.5-fold concentration, 1 μL of substrate at 5-fold concentration (SGKtide: NH2—CKKRNRRLSVA-COOH, manufactured by SignalChem), ATP (manufactured by Sigma-Aldrich), MgCl2 (manufactured by FUJIFILM Wako Pure Chemical Corporation) solution (final concentration 10 μM, 400 μM or 5 mM), and 2 μL of kinase solution at 2.5-fold concentration (final concentration of LATS1 or LATS2 5 μg/mL), each prepared with assay buffer (20 mM HEPES, 0.01% Triton X-100, 2 mM DTT, pH 7.5), were mixed in the wells of a polypropylene 384-well plate (manufactured by Greiner Bio-One, #784900) and reacted at room temperature for 5 hr. Successively, 5 μL detection solution (Fluorospark (registered trade mark)Kinase/ADP Multi-Assay Kit; manufactured by FUJIFILM Wako Pure Chemical Corporation) was added, and the mixture was reacted at room temperature 30 min. Successively, 5 μL of a reaction quenching liquid (Fluorospark (registered trade mark) Kinase/ADP Multi-Assay Kit; manufactured by FUJIFILM Wako Pure Chemical Corporation) was added to discontinue the reaction. Thereafter, the ADP concentration of the reaction solution was quantified by EnSpire (manufactured by PerkinElmer) to detect the kinase reaction.

The next experiment has as its target T2, LATS2 (Homo sapiens, UniProt Q9NRM7).
T2 construct: purchased Carna Biosciences
T2 sequence (Q9NRM7 553-1088 limits assumed): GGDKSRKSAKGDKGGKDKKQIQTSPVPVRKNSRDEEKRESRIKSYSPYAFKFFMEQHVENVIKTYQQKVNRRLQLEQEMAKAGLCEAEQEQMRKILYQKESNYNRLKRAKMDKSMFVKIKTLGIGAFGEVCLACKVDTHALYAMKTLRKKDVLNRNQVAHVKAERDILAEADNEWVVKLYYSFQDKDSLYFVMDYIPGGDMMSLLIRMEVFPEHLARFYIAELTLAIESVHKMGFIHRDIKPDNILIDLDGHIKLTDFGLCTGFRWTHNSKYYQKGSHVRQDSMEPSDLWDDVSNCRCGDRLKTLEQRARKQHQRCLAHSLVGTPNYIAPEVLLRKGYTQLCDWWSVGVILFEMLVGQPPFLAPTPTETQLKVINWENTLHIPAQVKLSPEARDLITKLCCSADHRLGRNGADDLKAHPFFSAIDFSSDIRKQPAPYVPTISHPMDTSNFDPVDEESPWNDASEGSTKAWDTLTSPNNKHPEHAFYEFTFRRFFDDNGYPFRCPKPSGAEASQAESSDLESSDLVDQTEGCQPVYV
The experiment is described as above. The class given is biochemical. As to the method:
as §1, §2, §3

[1] abbreviates: Kinase Assay method, 8 steps 10 μM to 0.3 nM.

Each structure is given as a SMILES string.

One may read the IC50 as the midpoint of a concentration-inhibition curve. Higher therefore signals weaker potency in that assay. On to `CC/C(=N\NC(=O)C(C)Nc1ccccc1)c1ccc(O)c(C)c1O` (stereo not drawn) [k-1:B-1], for which the inhibition at 0.1 µM at LATS1 (100 nM, read-out: LARS1 inhibitory rate (%)) came out at 94%; at LATS2 (100 nM, read-out: LARS2 inhibitory rate (%)) it was 75%. The inhibition at 1 µM at LATS1 (1000 nM, read-out: LARS1 inhibitory rate (%)) came out at 102%; at LATS2 (1000 nM, read-out: LARS2 inhibitory rate (%)), 96%. The IC50 is 8.88 nM on LATS1 (setting [1]) and 30.8 nM against LATS2 (setting [1]).

These data come from patent US20210253518A1, “KINASE INHIBITOR” (NISSAN CHEMICAL CORPORATION, priority 2018, published 2021).
